Like-named read-outs stand apart in the source and are kept apart here.
How the values were obtained:
Assay type in all cases: biochemical
[1] = biological target: HDAC 1 (Homo sapiens, UniProt Q13547); assay: HDAC1 activity, assays described on pages 104 to 106 of WO 2006/061638
[2] = biological target: T1, HDAC 6 (Homo sapiens, UniProt Q9UBN7); assay: HDAC 6 Assay
T1 construct: made in house
T1 sequence (Q9UBN7 1-1215): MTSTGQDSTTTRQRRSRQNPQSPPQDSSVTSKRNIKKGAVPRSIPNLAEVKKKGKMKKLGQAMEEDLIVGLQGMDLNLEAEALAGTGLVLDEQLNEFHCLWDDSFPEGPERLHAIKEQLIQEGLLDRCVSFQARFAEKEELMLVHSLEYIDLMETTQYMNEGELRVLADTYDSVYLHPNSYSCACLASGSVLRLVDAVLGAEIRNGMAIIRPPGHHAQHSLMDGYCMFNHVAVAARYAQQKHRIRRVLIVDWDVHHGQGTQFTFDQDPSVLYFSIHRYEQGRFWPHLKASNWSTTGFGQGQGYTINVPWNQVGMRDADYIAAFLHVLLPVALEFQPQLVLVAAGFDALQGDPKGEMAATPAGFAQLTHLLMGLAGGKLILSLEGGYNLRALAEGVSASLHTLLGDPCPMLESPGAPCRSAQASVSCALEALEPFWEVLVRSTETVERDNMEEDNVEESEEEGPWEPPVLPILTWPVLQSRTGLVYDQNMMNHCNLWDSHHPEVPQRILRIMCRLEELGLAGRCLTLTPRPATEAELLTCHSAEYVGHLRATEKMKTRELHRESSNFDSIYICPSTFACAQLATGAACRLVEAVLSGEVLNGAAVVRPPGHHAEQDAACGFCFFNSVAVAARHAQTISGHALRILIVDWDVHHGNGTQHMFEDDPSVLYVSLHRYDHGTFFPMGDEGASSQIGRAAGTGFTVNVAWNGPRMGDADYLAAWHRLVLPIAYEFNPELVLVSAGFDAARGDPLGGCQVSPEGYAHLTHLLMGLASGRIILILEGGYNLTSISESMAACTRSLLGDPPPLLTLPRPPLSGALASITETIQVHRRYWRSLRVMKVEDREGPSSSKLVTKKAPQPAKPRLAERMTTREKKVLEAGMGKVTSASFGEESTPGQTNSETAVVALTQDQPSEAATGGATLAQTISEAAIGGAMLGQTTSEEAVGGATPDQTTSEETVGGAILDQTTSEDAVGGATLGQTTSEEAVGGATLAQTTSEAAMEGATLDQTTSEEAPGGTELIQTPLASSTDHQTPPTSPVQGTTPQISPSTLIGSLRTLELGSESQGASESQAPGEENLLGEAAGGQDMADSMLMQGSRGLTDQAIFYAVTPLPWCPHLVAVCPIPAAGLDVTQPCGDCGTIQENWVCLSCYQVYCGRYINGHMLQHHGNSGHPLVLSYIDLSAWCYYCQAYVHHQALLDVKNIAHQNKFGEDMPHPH

[3] = biological target: T2, HDAC 4 (Homo sapiens, UniProt P56524); assay: HDAC 4 Assay
T2 construct: The His-tagged HDAC 4, wild-type catalytic domain, was expressed in E. coli; His tag; made in house; host or cells: E. coli BL21 Star (DE3)
T2 sequence (P56524 655-1084 limits assumed): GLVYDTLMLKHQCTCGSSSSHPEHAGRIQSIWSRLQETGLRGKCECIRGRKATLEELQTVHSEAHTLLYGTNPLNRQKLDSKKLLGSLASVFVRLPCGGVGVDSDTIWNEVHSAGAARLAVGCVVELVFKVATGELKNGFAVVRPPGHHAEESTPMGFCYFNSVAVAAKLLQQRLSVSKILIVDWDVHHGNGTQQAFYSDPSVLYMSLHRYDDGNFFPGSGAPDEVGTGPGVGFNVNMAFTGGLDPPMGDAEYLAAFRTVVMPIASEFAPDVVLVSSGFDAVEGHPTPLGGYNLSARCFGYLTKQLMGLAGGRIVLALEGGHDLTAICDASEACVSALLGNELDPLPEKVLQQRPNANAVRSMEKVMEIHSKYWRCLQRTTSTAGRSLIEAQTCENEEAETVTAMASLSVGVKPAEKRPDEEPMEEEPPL

Sequence of HDAC 1 (Q13547 whole entry): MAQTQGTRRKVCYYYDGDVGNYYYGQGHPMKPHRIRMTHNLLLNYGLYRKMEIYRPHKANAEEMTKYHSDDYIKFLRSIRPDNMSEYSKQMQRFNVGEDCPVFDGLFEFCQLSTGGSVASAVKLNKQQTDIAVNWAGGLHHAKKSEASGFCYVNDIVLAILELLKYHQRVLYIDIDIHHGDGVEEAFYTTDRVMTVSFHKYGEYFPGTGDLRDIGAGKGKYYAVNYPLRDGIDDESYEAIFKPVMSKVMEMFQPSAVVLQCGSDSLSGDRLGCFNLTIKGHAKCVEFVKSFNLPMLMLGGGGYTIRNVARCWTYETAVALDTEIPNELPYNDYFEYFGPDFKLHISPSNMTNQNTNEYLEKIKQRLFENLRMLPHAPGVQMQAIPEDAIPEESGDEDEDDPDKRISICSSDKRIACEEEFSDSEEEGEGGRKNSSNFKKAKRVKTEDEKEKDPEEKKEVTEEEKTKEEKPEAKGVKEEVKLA

| Compound | IC50 [1] | inhibition at 0.001 µM ([2]; @ 1 nM, read-out: HDAC 6 % inh.) | IC50 ([3]; not active up to the stated concentration, read-out: HDAC 4 IC50, Not active up to) | inhibition at 1 µM ([3]; @ 1000 nM, read-out: HDAC 4 % inh.) | IC50 [2] | selectivity for Class II HDAC (HDAC 4 and 6) over Class I (HDAC 1) ([3]; HDAC 4 and 6 versus HDAC 1) | IC50 ([3]; read-out: HDAC 4 IC50) |
| --- | --- | --- | --- | --- | --- | --- | --- |
| C[C@@H](NC(=O)c1ccc(C(=O)NO)s1)c1ccccc1 [N-hydroxy-N′-[(1R)-1-phenytethyl]thiophene-2,5-dicarboxamide] | 6 nM | 50% | > 1000 nM | – | – | – | – |
| CC(/C=C/C(=O)NO)=C\[C@@H](C)C(=O)c1ccc(N(C)C)cc1 [TSA, trichostatin A] | – | – | – | 42% | – | – | – |
| C[C@@H](NC(=O)c1ccc(C(=O)C(F)(F)F)s1)c1ccccc1 [Example 8, N-[(1R)-1-phenylethyl]-5-(trifluoroacetyl)thiophene-2-carboxamide] | 710 nM | – | – | – | 350 nM | showed selectivity for Class II HDAC (HDAC 4 and 6) over Class I (HDAC 1) | 95 nM |

Reference: patent US7977374B2, “Thiophene and thiazole substituted trifluoroethanone derivatives as histone deacetylase (HDAC) inhibitors” (Istituto Di Ricerche Di Biologia Molecolare P. Angeletti SPA, priority 2005, dated 2011)
